In patent US20230017045A1, “PYRIDINE AND PYRIMIDINE CARBOXYLATE HERBICIDES AND METHODS OF USE THEREOF” (Dow AgroSciences LLC, priority 2017, published 2023):
Like-named read-outs stand apart in the source and are kept apart here.

Test system: test plant species
Test: Post-emergent herbicidal activity test (greenhouse, foliar spray, visual growth reduction)
Type: in vivo
Settings: post-emergence, 336 h, 140 g ai/ha
Method in brief: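 Visual scoring 14 d after treatment (0 = no injury, 100 = complete control) against nontreated and solvent-blank plants gave percent growth reduction. Foliar application used a track sprayer delivering 187 L/ha to seedlings at first or second true leaf stage, grown at 23–29 °C day, ~15 h photoperiod.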

[1] = ALOMY: blackgrass (Alopecurus myosuroides), 14 days after application, read-out: Visual Growth Reduction (%) 14 Days After Application, ALOMY
[2] = AMARE: redroot pigweed (Amaranthus retroflexus), 14 days after application, read-out: Visual Growth Reduction (%) 14 Days After Application, AMARE
[3] = AVEFA: wild oat (Avena fatua), 14 days after application, read-out: Visual Growth Reduction (%) 14 Days After Application, AVEFA
[4] = CHEAL: lambsquarters (Chenopodium album), 14 days after application, read-out: Visual Growth Reduction (%) 14 Days After Application, CHEAL
[5] = CIRAR: canada thistle (Cirsium arvense), 14 days after application, read-out: Visual Growth Reduction (%) 14 Days After Application, CIRAR
[6] = CYPES: yellow nutsedge (Cyperus esculentus), 14 days after application, read-out: Visual Growth Reduction (%) 14 Days After Application, CYPES
[7] = DIGSA: crabgrass (Digitaria sanguinalis), 14 days after application, read-out: Visual Growth Reduction (%) 14 Days After Application, DIGSA
[8] = ECHCG: barnyardgrass (Echinochloa crus-galli), 14 days after application, read-out: Visual Growth Reduction (%) 14 Days After Application, ECHCG
[9] = IPOHE: ivy-leaf morning glory (Ipomoea hederacea), 14 days after application, read-out: Visual Growth Reduction (%) 14 Days After Application, IPOHE
[10] = KCHSC: kochia (Bassia scoparia), 14 days after application, read-out: Visual Growth Reduction (%) 14 Days After Application, KCHSC
[11] = ORYSA: rice (Oryza sativa), 14 days after application, read-out: Visual Growth Reduction (%) 14 Days After Application, ORYSA
[12] = SETFA: giant foxtail (Setaria faberi), 14 days after application, read-out: Visual Growth Reduction (%) 14 Days After Application, SETFA
[13] = SORVU: grain sorghum (Sorghum vulgare), 14 days after application, read-out: Visual Growth Reduction (%) 14 Days After Application, SORVU
[14] = STEME: common chickweed (Stellaria media), 14 days after application, read-out: Visual Growth Reduction (%) 14 Days After Application, STEME
[15] = TRZAS: wheat, spring (Triticum aestivum), 14 days after application, read-out: Visual Growth Reduction (%) 14 Days After Application, TRZAS
[16] = blackgrass (Alopecurus myosuroides), 14 Days After Application, read-out: Visual Growth Reduction (%) ALOMY
[17] = canada thistle (Cirsium arvense), 14 Days After Application, read-out: Visual Growth Reduction (%) CIRAR
[18] = crabgrass (Digitaria sanguinalis), 14 Days After Application, read-out: Visual Growth Reduction (%) DIGSA
[19] = lambsquarters (Chenopodium album), 14 Days After Application, read-out: Visual Growth Reduction (%) CHEAL
[20] = redroot pigweed (Amaranthus retroflexus), 14 Days After Application, read-out: Visual Growth Reduction (%) AMARE
[21] = wild oat (Avena fatua), 14 Days After Application, read-out: Visual Growth Reduction (%) AVEFA
[22] = yellow nutsedge (Cyperus esculentus), 14 Days After Application, read-out: Visual Growth Reduction (%) CYPES

SMILES	pest or weed control at 140 g/ha [1] [%]	pest or weed control at 140 g/ha [2] [%]	pest or weed control at 140 g/ha [3] [%]	pest or weed control at 140 g/ha [4] [%]	pest or weed control at 140 g/ha [5] [%]	pest or weed control at 140 g/ha [6] [%]	pest or weed control at 140 g/ha [7] [%]	pest or weed control at 140 g/ha [8] [%]	pest or weed control at 140 g/ha [9] [%]	pest or weed control at 140 g/ha [10] [%]	pest or weed control at 140 g/ha [11] [%]	pest or weed control at 140 g/ha [12] [%]	pest or weed control at 140 g/ha [13] [%]	pest or weed control at 140 g/ha [14] [%]	pest or weed control at 140 g/ha [15] [%]	further results
O=C(O)c1nc(-c2cc3c(cc2Cl)OC(F)(F)O3)ccc1Cl [F126]	0 to 29	95 to 100	0 to 29	85 to 94	75 to 84	0 to 29	85 to 94	60 to 74	95 to 100	60 to 74	0 to 29	60 to 74	75 to 84	0 to 29	75 to 84	
COC(=O)c1nc(-c2cccc(OC(F)(F)F)c2F)ccc1Cl [F290, Methyl 3-chloro-6-(2-fluoro-3-(trifluoromethoxy)phenyl)picolinate]								0 to 29	75 to 84	0 to 29	0 to 29	0 to 29	0 to 29	0 to 29	0 to 29	pest or weed control at 140 g/ha [16]: 0 to 29%; pest or weed control at 140 g/ha [17]: 0 to 29%; pest or weed control at 140 g/ha [18]: 0 to 29%; pest or weed control at 140 g/ha [19]: 0 to 29%; pest or weed control at 140 g/ha [20]: 0 to 29%; pest or weed control at 140 g/ha [21]: 0 to 29%; pest or weed control at 140 g/ha [22]: 60 to 74%
COC(=O)c1nc(-c2ccc(OC)cc2Cl)ccc1Cl [F35, Methyl 3-chloro-6-(2-chloro-4-methoxyphenyl) picolinate]	0 to 29	30 to 44	0 to 29	0 to 29	0 to 29	0 to 29	0 to 29	0 to 29	0 to 29	0 to 29	0 to 29	0 to 29	0 to 29	0 to 29	0 to 29	
COC(=O)c1nc(-c2ccc(Cl)c(F)c2F)ccc1Cl [F71, Methyl 3-chloro-6-(4-chloro-2,3-difluorophenyl) picolinate]	0 to 29	95 to 100	0 to 29	95 to 100	75 to 84	60 to 74	75 to 84	0 to 29	95 to 100		30 to 44		75 to 84	45 to 59		
O=C(O)c1nc(-c2ccc(Cl)c(F)c2F)ccc1Cl [F70, 3-Chloro-6-(4-chloro-2,3-difluorophenyl) picolinic acid]	0 to 29	95 to 100	0 to 29	95 to 100	75 to 84	75 to 84	60 to 74	45 to 59	85 to 94		0 to 29	30 to 44	85 to 94	60 to 74		
COC(=O)c1nc(-c2ccc(C(F)(F)F)cc2C(F)(F)F)ccc1Cl [F17, Methyl 6-(2,4-bis(trifluoromethyl)phenyl)-3-chloropicolinate]	0 to 29	60 to 74	0 to 29	60 to 74	0 to 29	0 to 29	45 to 59									pest or weed control at 140 g/ha (barnyardgrass (Echinochloa crus-galli), 14 Days After Application, read-out: Visual Growth Reduction (%) ECHCG): 0 to 29%; pest or weed control at 140 g/ha (common chickweed (Stellaria media), 14 Days After Application, read-out: Visual Growth Reduction (%) STEME): 0 to 29%; pest or weed control at 140 g/ha (giant foxtail (Setaria faberi), 14 Days After Application, read-out: Visual Growth Reduction (%) SETFA): 0 to 29%; pest or weed control at 140 g/ha (ivy-leaf morning glory (Ipomoea hederacea), 14 Days After Application, read-out: Visual Growth Reduction (%) IPOHE): 95 to 100%; pest or weed control at 140 g/ha (johnsongrass (Sorghum vulgare), 14 Days After Application, read-out: Visual Growth Reduction (%) SORVU): 85 to 94%; pest or weed control at 140 g/ha (kochia (Bassia scoparia), 14 Days After Application, read-out: Visual Growth Reduction (%) KCHSC): 0 to 29%; pest or weed control at 140 g/ha (rice (Oryza sativa), 14 Days After Application, read-out: Visual Growth Reduction (%) ORYSA): 0 to 29%; pest or weed control at 140 g/ha (wheat, spring (Triticum aestivum), 14 Days After Application, read-out: Visual Growth Reduction (%) TRZAS): 0 to 29%
COC(=O)c1nc(-c2ccc(C(F)(F)F)cc2C)ccc1Cl [F29, Methyl 3-chloro-6-(2-methyl-4-(trifluoromethyl)phenyl)picolinate]	0 to 29	60 to 74	0 to 29	60 to 74	0 to 29	0 to 29	45 to 59	0 to 29	95 to 100	0 to 29	0 to 29	0 to 29	60 to 74	0 to 29	0 to 29	
COC(=O)c1nc(-c2ccc(C#N)cc2F)c(F)cc1Cl [F378, Methyl 3-chloro-6-(4-cyano-2-fluorophenyl)-5-fluoropicolinate]								0 to 29	95 to 100	45 to 59	0 to 29	60 to 74	75 to 84	0 to 29	0 to 29	pest or weed control at 140 g/ha [16]: 0 to 29%; pest or weed control at 140 g/ha [17]: 45 to 59%; pest or weed control at 140 g/ha [18]: 60 to 74%; pest or weed control at 140 g/ha [19]: 75 to 84%; pest or weed control at 140 g/ha [20]: 45 to 59%; pest or weed control at 140 g/ha [21]: 0 to 29%; pest or weed control at 140 g/ha [22]: 0 to 29%
COC(=O)c1nc(-c2cc(C(F)(F)F)ccc2Cl)ccc1Cl [F38, Methyl 3-chloro-6-(2-chloro-5-(trifluoromethyl)phenyl)picolinate]	0 to 29	0 to 29	0 to 29	0 to 29	0 to 29	0 to 29	0 to 29	0 to 29	0 to 29	0 to 29	0 to 29	0 to 29	0 to 29	0 to 29	0 to 29	
